Experimental data from ChEMBL document CHEMBL6078730, “Exploring the antiproliferative and proapoptotic activities of new pyridopyrimidine derivatives and their analogs” (Bioorg Med Chem, 2025).
Values after ≈ are worked out from the molar mass of the structure shown. Values belong to the compound of their own block, whether it stands above or below them. Active and inactive are the calls of the source. No cut-off for these calls is given here.

What was measured:
MDA-MB-435 = assay: Antiproliferative activity against human MDA-MB-435 cells assessed as reduction in cell growth inhibition at 10 uM incubated for 24 hrs by MTT assay relative to control; type: functional; conditions: read-out: GI
T47D [1] = assay: Antiproliferative activity against human T47D cells assessed as reduction in cell growth inhibition at 10 uM incubated for 24 hrs by MTT assay relative to control; type: functional; conditions: read-out: GI
T47D [2] = assay: Antiproliferative activity against human T47D cells assessed as inhibition of cell proliferation incubated for 24 hrs by MTT assay; type: functional, cell-based
NCI-H23 = assay: Antiproliferative activity against human NCI-H23 cells assessed as reduction in cell growth inhibition at 10 uM incubated for 24 hrs by MTT assay relative to control; type: functional; conditions: read-out: GI
T47D [3] = assay: Induction of cell cycle arrest in human T47D cells assessed as increase in accumulation of cells at G2-M phase at IC50 concentration incubated for 48 hrs by […]PI staining based flow cytometry analysis (reference value: 17.28%); type: functional
[4] = biological target: Phosphatidylinositol 4,5-bisphosphate 3-kinase catalytic subunit beta isoform (Homo sapiens, UniProt P42338); assay: Inhibition of PI3K beta (unknown origin) using PIP2 as substrate preincubated for 10 mins followed by substrate addition and measured after 1 hrs by colorimetric analysis
T47D [5] = assay: Induction of apoptosis in human T47D cells assessed as increase in Bax expression at IC50 concentration incubated for 48 hrs by Western blotting analysis; type: functional, cell-based
[6] = Selectivity index, ratio of IC50 for human MCF-10A cells to IC50 for human T47D cells; type: toxicity; conditions: MCF-10A cells versus T47D cells, read-out: Ratio IC50
[7] = biological target: Phosphatidylinositol 4,5-bisphosphate 3-kinase catalytic subunit gamma isoform (Homo sapiens, UniProt P48736); assay: Inhibition of PI3K gamma (unknown origin) using PIP2 as substrate preincubated for 10 mins followed by substrate addition and measured after 1 hrs by colorimetric analysis
[8] = biological target: Phosphatidylinositol 4,5-bisphosphate 3-kinase catalytic subunit alpha isoform (Homo sapiens, UniProt P42336); assay: Inhibition of PI3K alpha (unknown origin) using PIP2 as substrate preincubated for 10 mins followed by substrate addition and measured after 1 hrs by colorimetric analysis
[9] = Cytotoxicity against human MCF-10A cells assessed as reduction in cell viability at 10 uM incubated for 24 hrs by MTT assay; type: toxicity, cell-based
T47D [10] = assay: Induction of apoptosis in human T47D cells assessed as decrease in viable cells at IC50 concentration incubated for 48 hrs by AnnexinV-FITC/PI staining based flow cytometry relative to control; type: functional, cell-based
T47D [11] = assay: Induction of apoptosis in human T47D cells assessed as increase in Bax/Bcl-2 ratio at IC50 concentration incubated for 48 hrs by Western blotting analysis; type: functional, cell-based
T47D [12] = assay: Induction of apoptosis in human T47D cells assessed as increase in necrotic cells at IC50 concentration incubated for 48 hrs by AnnexinV-FITC/PI staining based flow cytometry (reference value: 1.42%); type: functional
T47D [13] = assay: Induction of apoptosis in human T47D cells assessed as increase in p53 expression at IC50 concentration incubated for 48 hrs by Western blotting analysis; type: functional, cell-based
T47D [14] = assay: Induction of apoptosis in human T47D cells assessed as inhibition in Bcl2 expression at IC50 concentration incubated for 48 hrs by Western blotting analysis; type: functional, cell-based
T47D [15] = assay: Induction of apoptosis in human T47D cells assessed as increase in late apoptotic cells at IC50 concentration incubated for 48 hrs by AnnexinV-FITC/PI staining based flow cytometry (reference value: 0.13%); type: functional
[16] = Upregulation of Bax expression in human T47D cells assessed as fold change at IC50 concentration incubated for 48 hrs by Western blotting analysis; type: functional
T47D [17] = assay: Induction of cell cycle arrest in human T47D cells assessed as decrease in accumulation of cells at G0-G1 phase at IC50 concentration incubated for 48 hrs by […]PI staining based flow cytometry analysis (reference value: 52.84%); type: functional; set-up: scale not given: the % may be the effect or the level left
[18] = biological target: T1, Phosphatidylinositol 4,5-bisphosphate 3-kinase catalytic subunit delta isoform (Homo sapiens, UniProt O00329); assay: Inhibition of PI3K delta (unknown origin) using PIP2 as substrate preincubated for 10 mins followed by substrate addition and measured after 1 hrs by colorimetric analysis
T1 sequence (O00329 whole entry): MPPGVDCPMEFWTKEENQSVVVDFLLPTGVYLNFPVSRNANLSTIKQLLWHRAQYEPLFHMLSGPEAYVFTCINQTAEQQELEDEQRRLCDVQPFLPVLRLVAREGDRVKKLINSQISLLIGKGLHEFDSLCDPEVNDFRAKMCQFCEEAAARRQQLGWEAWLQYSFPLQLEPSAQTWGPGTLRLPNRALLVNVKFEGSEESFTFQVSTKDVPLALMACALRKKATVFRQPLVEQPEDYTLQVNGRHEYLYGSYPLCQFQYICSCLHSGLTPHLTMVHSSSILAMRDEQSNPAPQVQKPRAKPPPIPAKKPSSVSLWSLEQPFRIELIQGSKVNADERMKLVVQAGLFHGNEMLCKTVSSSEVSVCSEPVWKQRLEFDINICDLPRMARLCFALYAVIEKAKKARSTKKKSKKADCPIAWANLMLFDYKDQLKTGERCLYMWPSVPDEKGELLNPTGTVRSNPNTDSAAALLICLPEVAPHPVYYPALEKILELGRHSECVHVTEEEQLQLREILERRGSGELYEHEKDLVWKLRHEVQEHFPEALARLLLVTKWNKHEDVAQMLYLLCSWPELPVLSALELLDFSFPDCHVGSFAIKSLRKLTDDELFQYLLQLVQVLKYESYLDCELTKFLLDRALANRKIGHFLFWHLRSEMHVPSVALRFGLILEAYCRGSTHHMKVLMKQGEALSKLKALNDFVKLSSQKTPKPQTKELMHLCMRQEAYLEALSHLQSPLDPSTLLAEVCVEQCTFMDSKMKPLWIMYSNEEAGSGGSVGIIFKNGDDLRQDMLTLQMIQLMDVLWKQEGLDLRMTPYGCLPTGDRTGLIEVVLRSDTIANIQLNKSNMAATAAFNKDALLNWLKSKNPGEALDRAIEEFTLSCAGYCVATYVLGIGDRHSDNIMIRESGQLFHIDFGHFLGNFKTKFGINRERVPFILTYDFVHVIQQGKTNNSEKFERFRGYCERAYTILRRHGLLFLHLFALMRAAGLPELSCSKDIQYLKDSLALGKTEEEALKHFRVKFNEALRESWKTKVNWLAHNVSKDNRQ

T47D [19] = assay: Induction of apoptosis in human T47D cells assessed as fold increase in ratio of apoptotic cells incubated for 48 hrs by AnnexinV-FITC/PI staining based flow cytometry; type: functional
T47D [20] = assay: Induction of apoptosis in human T47D cells assessed as increase in early apoptotic cells at IC50 concentration incubated for 48 hrs by AnnexinV-FITC/PI staining based flow cytometry (reference value: 0.64%); type: functional
T47D [21] = assay: Induction of cell cycle arrest in human T47D cells assessed as decrease in accumulation of cells at S phase at IC50 concentration incubated for 48 hrs by […]PI staining based flow cytometry analysis (reference value: 29.88%); type: functional; set-up: scale not given: the % may be the effect or the level left
[22] = Downregulation of Bcl-2 expression in human T47D cells assessed as fold change at IC50 concentration incubated for 48 hrs by Western blotting analysis; type: functional

Sequence of Phosphatidylinositol 4,5-bisphosphate 3-kinase catalytic subunit beta isoform (P42338 whole entry, canonical isoform): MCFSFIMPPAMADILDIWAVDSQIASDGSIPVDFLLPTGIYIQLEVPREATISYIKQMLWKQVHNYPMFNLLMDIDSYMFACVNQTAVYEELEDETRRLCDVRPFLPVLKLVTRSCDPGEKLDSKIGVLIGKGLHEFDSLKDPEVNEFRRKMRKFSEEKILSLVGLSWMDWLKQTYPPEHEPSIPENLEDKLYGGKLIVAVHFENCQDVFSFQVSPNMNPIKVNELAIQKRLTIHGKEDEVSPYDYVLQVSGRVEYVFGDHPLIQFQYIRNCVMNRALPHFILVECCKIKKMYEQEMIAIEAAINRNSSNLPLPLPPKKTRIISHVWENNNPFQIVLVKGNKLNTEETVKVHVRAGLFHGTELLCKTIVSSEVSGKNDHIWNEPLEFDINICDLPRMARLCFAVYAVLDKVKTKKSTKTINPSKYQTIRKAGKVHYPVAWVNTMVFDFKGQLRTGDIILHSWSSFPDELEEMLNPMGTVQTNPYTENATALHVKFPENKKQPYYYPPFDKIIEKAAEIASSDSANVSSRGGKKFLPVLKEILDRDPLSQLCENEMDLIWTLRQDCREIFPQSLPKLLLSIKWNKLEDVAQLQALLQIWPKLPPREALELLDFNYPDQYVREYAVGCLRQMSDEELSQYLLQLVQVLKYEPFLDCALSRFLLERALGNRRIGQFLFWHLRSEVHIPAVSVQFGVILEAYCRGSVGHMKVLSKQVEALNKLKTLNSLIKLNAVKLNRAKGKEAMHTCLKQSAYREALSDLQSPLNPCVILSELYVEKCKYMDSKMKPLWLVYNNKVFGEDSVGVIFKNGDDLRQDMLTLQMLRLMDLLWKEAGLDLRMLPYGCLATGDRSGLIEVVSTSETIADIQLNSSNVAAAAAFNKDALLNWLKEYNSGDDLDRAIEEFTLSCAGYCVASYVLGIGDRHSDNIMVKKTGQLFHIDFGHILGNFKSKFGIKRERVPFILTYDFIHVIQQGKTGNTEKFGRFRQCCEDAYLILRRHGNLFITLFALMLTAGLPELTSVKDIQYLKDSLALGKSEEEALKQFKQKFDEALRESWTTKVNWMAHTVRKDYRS
Sequence of Phosphatidylinositol 4,5-bisphosphate 3-kinase catalytic subunit gamma isoform (P48736 whole entry, canonical isoform): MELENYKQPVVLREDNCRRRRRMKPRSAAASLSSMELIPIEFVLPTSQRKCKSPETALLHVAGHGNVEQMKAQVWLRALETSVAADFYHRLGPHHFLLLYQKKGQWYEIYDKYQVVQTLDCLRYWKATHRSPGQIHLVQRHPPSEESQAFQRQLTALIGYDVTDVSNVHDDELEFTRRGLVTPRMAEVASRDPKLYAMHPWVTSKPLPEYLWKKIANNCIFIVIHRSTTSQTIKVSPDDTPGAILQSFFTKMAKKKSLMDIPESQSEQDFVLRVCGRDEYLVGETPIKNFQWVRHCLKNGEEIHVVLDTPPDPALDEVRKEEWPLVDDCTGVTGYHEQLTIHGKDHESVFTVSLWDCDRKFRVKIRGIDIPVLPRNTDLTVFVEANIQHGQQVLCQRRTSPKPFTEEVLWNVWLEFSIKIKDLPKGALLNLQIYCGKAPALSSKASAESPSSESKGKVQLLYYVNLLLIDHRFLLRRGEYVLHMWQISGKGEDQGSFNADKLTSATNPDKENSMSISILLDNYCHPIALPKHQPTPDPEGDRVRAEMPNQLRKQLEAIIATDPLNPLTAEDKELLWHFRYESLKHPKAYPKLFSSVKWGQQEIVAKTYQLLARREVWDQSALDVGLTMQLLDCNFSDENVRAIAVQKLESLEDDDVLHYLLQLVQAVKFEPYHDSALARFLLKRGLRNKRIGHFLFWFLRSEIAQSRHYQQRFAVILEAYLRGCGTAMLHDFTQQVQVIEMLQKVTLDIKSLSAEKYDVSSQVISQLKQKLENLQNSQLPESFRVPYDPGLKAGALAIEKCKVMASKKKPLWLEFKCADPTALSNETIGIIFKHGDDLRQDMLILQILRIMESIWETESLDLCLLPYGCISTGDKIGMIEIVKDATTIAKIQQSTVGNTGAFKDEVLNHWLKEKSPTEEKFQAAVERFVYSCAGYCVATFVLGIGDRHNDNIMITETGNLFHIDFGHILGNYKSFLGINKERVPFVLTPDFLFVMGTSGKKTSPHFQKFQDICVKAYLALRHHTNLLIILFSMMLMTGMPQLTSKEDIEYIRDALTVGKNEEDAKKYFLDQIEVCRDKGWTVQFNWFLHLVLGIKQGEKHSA
Sequence of Phosphatidylinositol 4,5-bisphosphate 3-kinase catalytic subunit alpha isoform (P42336 whole entry, canonical isoform): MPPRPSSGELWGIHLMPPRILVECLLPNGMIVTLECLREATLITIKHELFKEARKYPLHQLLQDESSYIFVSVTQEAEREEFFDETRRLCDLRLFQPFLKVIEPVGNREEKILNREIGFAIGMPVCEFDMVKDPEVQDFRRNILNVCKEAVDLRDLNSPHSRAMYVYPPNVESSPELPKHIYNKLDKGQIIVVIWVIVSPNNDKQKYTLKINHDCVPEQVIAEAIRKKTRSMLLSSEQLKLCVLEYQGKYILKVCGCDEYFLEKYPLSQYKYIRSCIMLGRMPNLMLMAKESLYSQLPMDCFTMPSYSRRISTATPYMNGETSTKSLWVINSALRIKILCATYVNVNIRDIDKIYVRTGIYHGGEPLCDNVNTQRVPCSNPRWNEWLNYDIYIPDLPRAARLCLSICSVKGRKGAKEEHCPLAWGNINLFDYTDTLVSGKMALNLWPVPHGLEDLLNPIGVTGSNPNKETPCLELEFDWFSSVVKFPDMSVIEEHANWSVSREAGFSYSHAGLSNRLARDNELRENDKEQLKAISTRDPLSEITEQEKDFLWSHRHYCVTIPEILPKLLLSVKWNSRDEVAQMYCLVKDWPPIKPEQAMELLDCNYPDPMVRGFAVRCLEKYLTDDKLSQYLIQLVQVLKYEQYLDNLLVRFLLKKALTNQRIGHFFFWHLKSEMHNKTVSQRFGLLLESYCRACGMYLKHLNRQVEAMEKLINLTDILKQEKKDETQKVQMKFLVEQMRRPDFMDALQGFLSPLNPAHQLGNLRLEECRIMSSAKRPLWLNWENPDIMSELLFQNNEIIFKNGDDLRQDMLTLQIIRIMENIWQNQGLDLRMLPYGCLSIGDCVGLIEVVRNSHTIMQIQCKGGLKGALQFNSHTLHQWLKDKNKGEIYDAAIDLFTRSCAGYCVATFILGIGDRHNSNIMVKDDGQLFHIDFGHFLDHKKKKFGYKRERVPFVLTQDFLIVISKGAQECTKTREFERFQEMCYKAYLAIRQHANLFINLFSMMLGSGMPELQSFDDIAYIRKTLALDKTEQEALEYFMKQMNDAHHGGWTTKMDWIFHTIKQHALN

Compound: O=C(C1=CNC(=S)NC1c1ccc(F)cc1)c1ccc(F)cc1 (stereo not given)
inhibition of growth at 10 µM (MDA-MB-435): 63%

Compound: Cc1ccc(C(=O)C2=CNC(=S)NC2c2ccc(O)cc2)cc1 (stereo not given)
inhibition of growth at 10 µM (MDA-MB-435): 184%

Compound: O=C(C1=CNC(=S)NC1c1ccc(F)cc1)c1ccc(Cl)cc1 (stereo not given)
inhibition of growth at 10 µM (MDA-MB-435): 63%

Compound: Cc1ccc(C(=O)C2=CNC(=O)NC2c2ccc(O)cc2)cc1 (stereo not given)
inhibition of growth at 10 µM (NCI-H23): 114%

Compound: CS(=O)(=O)N1CCN(Cc2cc3nc(-c4cccc5[nH]ncc45)nc(N4CCOCC4)c3s2)CC1 [PICTILISIB]
IC50 (T47D [2]): 2.56 µg/mL (≈ 4.98 µM)

Compound: O=C(C1=CNC(=S)NC1c1ccc(F)cc1)c1ccccc1 (stereo not given)
inhibition of growth at 10 µM (MDA-MB-435): 63%

Compound: O=c1[nH]c(=S)[nH]c2nc(-c3ccccc3)ccc12
inhibition of growth at 10 µM (T47D [1]): 50% | IC50 (T47D [2]): 16.1 µg/mL (≈ 63 µM)

Continued, in another order:

IC50 (T47D [2]): 9.62 µg/mL (≈ 28.8 µM)
Compound: O=c1[nH]c(=S)[nH]c2nc(-c3ccc(Br)cc3)ccc12
inhibition of growth at 10 µM (T47D [1]): 81%

IC50 (T47D [2]): 22.1 µg/mL (≈ 73.7 µM)
Compound: O=c1[nH]c(=S)[nH]c2nc(-c3ccc([N+](=O)[O-])cc3)ccc12
inhibition of growth at 10 µM (T47D [1]): 81%

IC50 (T47D [2]): 52.7 µg/mL (≈ 185 µM)
Compound: COc1ccc(-c2ccc3c(=O)[nH]c(=S)[nH]c3n2)cc1
inhibition of growth at 10 µM (T47D [1]): 81%

IC50 [4]: 7.69 µM | IC50 [7]: 2.12 µM | IC50 [8]: 0.632 µM | IC50 (T47D [2]): 1.46 µg/mL (≈ 5.04 µM) | IC50 [18]: 40.9 µM
Compound: O=c1[nH]c(=S)[nH]c2nc(-c3ccc(Cl)cc3)ccc12
Activity (T47D [3]): 28.02% | Activity (T47D [5]): Active | selectivity ratio [6]: 289 | inhibition of growth at 10 µM (T47D [1]): 81% | IC50 at 24 h [9]: 422 µg/mL (≈ 1460 µM) | Activity (T47D [10]): Active | Activity (T47D [11]): Active | Activity (T47D [12]): 6.88% | Activity (T47D [13]): Active | Activity (T47D [14]): Active | Activity (T47D [15]): 11.51% | fold change (FC) [16]: 2.38 | Activity (T47D [17]): 45.11% | fold change (FC) (T47D [19]): ~37 | Activity (T47D [20]): 18.83% | Activity (T47D [21]): 26.87% | fold change (FC) [22]: 0.69

IC50 (T47D [2]): 18.4 µg/mL (≈ 68.4 µM)
Compound: Cc1ccc(-c2ccc3c(=O)[nH]c(=S)[nH]c3n2)cc1
inhibition of growth at 10 µM (T47D [1]): 81%

IC50 (T47D [2]): 6.09 µg/mL (≈ 22.3 µM)
Compound: O=c1[nH]c(=S)[nH]c2nc(-c3ccc(F)cc3)ccc12
inhibition of growth at 10 µM (T47D [1]): 81%
